System: lysosomes of A549 cells
Experiment: Lysosomal membrane permeability by FITC-Dextran cell localization
Type: cell-based
Conditions: 3 h, confocal microscope; dispersed = increased LMP
Method: (1) Inoculation of A549 cells in plates: A549 cells in the logarithmic growth phase were prepared into a cell suspension, inoculated into a 6-well plate as per approximately 1×10^5 cells/well. Then, 2 ml of medium was added to each well, and cultured overnight in a 5% CO2 incubator at 37° C.
(2) FITC-Dextran (made by Sigma) with a final concentration of 1 mg/ml was added to the cell medium in Step (1), and incubated at 37° C. for 4 h in the dark.
(3) The cells in Step (2) were washed twice with sterile PBS, 1640 medium was added, thus allowing A549 cells to be treated with the medium (blank control group), pMVA-1 plasmid (control group PMVA), DOTAP cationic lipid (control group DOTAP) and pMVA-1/DOTAP complex (experimental group PMVA-DOTAP) respectively, and incubated at 37° C. for 3 h in the dark.
(4) The cells in Step (3) were washed twice with PBS, stabilized with 4% paraformaldehyde for 10 min, washed twice with PBS, sealed. Fluorecytes were observed under a confocal microscope and the images were saved.

With `CCCCCCCC/C=C\CCCCCCCC(=O)OCC(C[N+](C)(C)C)OC(=O)CCCCCCC/C=C\CCCCCCCC` (stereo not shown) [DOTAP, 1,2-dioleoyl-3-trimethylammonium-propane] the “distribution of FITC-Dextran in cytoplasm of A549 cells” value was “distributed in dots”.

From patent US11738072B2, “Tumor vaccine and uses thereof” (WestVac Biopharma Co., Ltd., priority 2017, dated 2023)
